Results published in ChEMBL document CHEMBL3885881, “DrugMatrix”.

Species: Rattus norvegicus
Assay: DrugMatrix - Regimen: Daily Repeat
Assay type: toxicity, organism-based, Sprague-Dawley
Set-up: regimen Daily Repeat, gender Male, age 6-8 weeks
Conditions: in vivo, po, route oral GAVAGE, vehicle .5 % CMC; for ABSOLUTE BASOPHIL / ABSOLUTE EOSINOPHIL / ABSOLUTE LYMPHOCYTE / ABSOLUTE MONOCYTE / ABSOLUTE SEGMENTED NEUTROPHIL / BASOPHIL / EOSINOPHIL / ERYTHROCYTE COUNT / HEMATOCRIT / HEMOGLOBIN / LEUKOCYTE COUNT / LYMPHOCYTE / MEAN CORPUSCULAR HEMOGLOBIN / MEAN CORPUSCULAR HEMOGLOBIN CONCENTRATION / MEAN CORPUSCULAR VOLUME / MONOCYTE / NEUTROPHIL / NUCLEATED RED BLOOD CELLS / PLATELET COUNT: tissue Blood; for ALANINE AMINOTRANSFERASE / ALBUMIN / ALKALINE PHOSPHATASE / ASPARTATE AMINOTRANSFERASE / BLOOD UREA NITROGEN / CARBON DIOXIDE / CHLORIDE / CHOLESTEROL / CREATINE PHOSPHOKINASE / CREATININE / GLUCOSE / LACTATE DEHYDROGENASE / LIPASE / PHOSPHORUS / POTASSIUM / SODIUM / TOTAL BILIRUBIN / TOTAL PROTEIN / URIC ACID: tissue Plasma
[1] = 0 mg/kg, 72 h, dose level Control, time 3 day
[2] = 0 mg/kg, 120 h, dose level Control, time 5 day
[3] = 29 mg/kg, 72 h, dose level Low, time 3 day

NC(=O)NC(=O)Cc1ccccc1 [PHENACEMIDE]
ABSOLUTE BASOPHIL [1]: 0 CELLS/uL | ABSOLUTE EOSINOPHIL [1]: 15.17 CELLS/uL | ABSOLUTE LYMPHOCYTE [1]: 10149.83 CELLS/uL | ABSOLUTE MONOCYTE [1]: 193.33 CELLS/uL | ABSOLUTE SEGMENTED NEUTROPHIL [1]: 1575 CELLS/uL | BASOPHIL [1]: 0% | EOSINOPHIL [1]: 0.17% | ERYTHROCYTE COUNT [1]: 5.53 x10E6/uL | HEMATOCRIT [1]: 34.7% | HEMOGLOBIN [1]: 12.78 G/DL | LEUKOCYTE COUNT [1]: 11.93 x10E3/uL | LYMPHOCYTE [1]: 85.5% | MEAN CORPUSCULAR HEMOGLOBIN [1]: 23.15 pg | MEAN CORPUSCULAR HEMOGLOBIN CONCENTRATION [1]: 36.9 G/DL | MEAN CORPUSCULAR VOLUME [1]: 62.82 fL | MONOCYTE [1]: 1.5% | NEUTROPHIL [1]: 12.83% | NUCLEATED RED BLOOD CELLS [1]: 0.5 /100WBC | PLATELET COUNT [1]: 994.17 x10E3/uL | ALANINE AMINOTRANSFERASE [1]: 48.17 u/L | ALBUMIN [1]: 4.37 G/DL | ALKALINE PHOSPHATASE [1]: 436.5 u/L | ASPARTATE AMINOTRANSFERASE [1]: 83.17 u/L | BLOOD UREA NITROGEN [1]: 14.67 mg/dL | CARBON DIOXIDE [1]: 30.83 mmol/L | CHLORIDE [1]: 99.17 MEQ/L | CHOLESTEROL [1]: 86.33 mg/dL | CREATINE PHOSPHOKINASE [1]: 243.33 u/L | CREATININE [1]: 0.25 mg/dL | GLUCOSE [1]: 158 mg/dL | LACTATE DEHYDROGENASE [1]: 262.33 u/L | LIPASE [1]: 11 u/L | PHOSPHORUS [1]: 12.07 mg/dL | POTASSIUM [1]: 6.52 MEQ/L | SODIUM [1]: 142.45 MEQ/L | TOTAL BILIRUBIN [1]: 0.17 mg/dL | TOTAL PROTEIN [1]: 6.25 G/DL | URIC ACID [1]: 1.42 mg/dL | ABSOLUTE BASOPHIL [2]: 0 CELLS/uL | ABSOLUTE EOSINOPHIL [2]: 0 CELLS/uL | ABSOLUTE LYMPHOCYTE [2]: 10076.67 CELLS/uL | ABSOLUTE MONOCYTE [2]: 124 CELLS/uL | ABSOLUTE SEGMENTED NEUTROPHIL [2]: 966 CELLS/uL | BASOPHIL [2]: 0% | EOSINOPHIL [2]: 0% | ERYTHROCYTE COUNT [2]: 5.57 x10E6/uL | HEMATOCRIT [2]: 33.37% | HEMOGLOBIN [2]: 12.73 G/DL | LEUKOCYTE COUNT [2]: 11.17 x10E3/uL | LYMPHOCYTE [2]: 90.33% | MEAN CORPUSCULAR HEMOGLOBIN [2]: 22.9 pg | MEAN CORPUSCULAR HEMOGLOBIN CONCENTRATION [2]: 38.18 G/DL | MEAN CORPUSCULAR VOLUME [2]: 59.97 fL | MONOCYTE [2]: 1% | NEUTROPHIL [2]: 8.67% | NUCLEATED RED BLOOD CELLS [2]: 0 /100WBC | PLATELET COUNT [2]: 1078 x10E3/uL | ALANINE AMINOTRANSFERASE [2]: 37.17 u/L | ALBUMIN [2]: 4.2 G/DL | ALKALINE PHOSPHATASE [2]: 322.17 u/L | ASPARTATE AMINOTRANSFERASE [2]: 67.67 u/L | BLOOD UREA NITROGEN [2]: 14 mg/dL | CARBON DIOXIDE [2]: 27.67 mmol/L | CHLORIDE [2]: 102.17 MEQ/L | CHOLESTEROL [2]: 67.67 mg/dL | CREATINE PHOSPHOKINASE [2]: 171.83 u/L | CREATININE [2]: 0.27 mg/dL | GLUCOSE [2]: 172 mg/dL | LACTATE DEHYDROGENASE [2]: 85.33 u/L | LIPASE [2]: 8.67 u/L | PHOSPHORUS [2]: 12 mg/dL | POTASSIUM [2]: 6.09 MEQ/L | SODIUM [2]: 144.82 MEQ/L | TOTAL BILIRUBIN [2]: 0.13 mg/dL | TOTAL PROTEIN [2]: 6.07 G/DL | URIC ACID [2]: 2.13 mg/dL | ABSOLUTE BASOPHIL [3]: 0 CELLS/uL | ABSOLUTE EOSINOPHIL [3]: 0 CELLS/uL | ABSOLUTE LYMPHOCYTE [3]: 6638.67 CELLS/uL | ABSOLUTE MONOCYTE [3]: 81.67 CELLS/uL | ABSOLUTE SEGMENTED NEUTROPHIL [3]: 1179.67 CELLS/uL | BASOPHIL [3]: 0% | EOSINOPHIL [3]: 0% | ERYTHROCYTE COUNT [3]: 4.84 x10E6/uL | HEMATOCRIT [3]: 29.67% | HEMOGLOBIN [3]: 11.57 G/DL | LEUKOCYTE COUNT [3]: 7.9 x10E3/uL | LYMPHOCYTE [3]: 84% | MEAN CORPUSCULAR HEMOGLOBIN [3]: 23.9 pg | MEAN CORPUSCULAR HEMOGLOBIN CONCENTRATION [3]: 39 G/DL | MEAN CORPUSCULAR VOLUME [3]: 61.37 fL | MONOCYTE [3]: 1% | NEUTROPHIL [3]: 15% | NUCLEATED RED BLOOD CELLS [3]: 0.67 /100WBC | PLATELET COUNT [3]: 982 x10E3/uL | ALANINE AMINOTRANSFERASE [3]: 51 u/L | ALBUMIN [3]: 4.1 G/DL | ALKALINE PHOSPHATASE [3]: 430.67 u/L | ASPARTATE AMINOTRANSFERASE [3]: 87.33 u/L | BLOOD UREA NITROGEN [3]: 15.67 mg/dL | CARBON DIOXIDE [3]: 30 mmol/L | CHLORIDE [3]: 101 MEQ/L | CHOLESTEROL [3]: 78.67 mg/dL | CREATINE PHOSPHOKINASE [3]: 358 u/L | CREATININE [3]: 0.27 mg/dL | GLUCOSE [3]: 152.67 mg/dL | LACTATE DEHYDROGENASE [3]: 97 u/L | LIPASE [3]: 9.67 u/L | PHOSPHORUS [3]: 12.5 mg/dL | POTASSIUM [3]: 6.3 MEQ/L | SODIUM [3]: 145.1 MEQ/L | TOTAL BILIRUBIN [3]: 0.13 mg/dL | TOTAL PROTEIN [3]: 5.83 G/DL | URIC ACID [3]: 0.97 mg/dL
